Results on five compounds are retold here after paper PMC7756582, “Prodrugs of γ‐Alkyl‐Modified Nucleoside Triphosphates: Improved Inhibition of HIV Reverse Transcriptase” (Angewandte Chemie (International Ed. in English), 2020).

Data set [1] is described as follows: Chemical hydrolysis in aqueous phosphate buffer (PBS, pH 7.3). The format is physicochemical. To be noted: for half-life at 0.92 mM: phosphate buffered saline (PBS), read-out: PBS pH 7.3 t 1/2 (converted); for half-life at 0.92 mM / PBS pH 7.3 t 1/2: aqueous 25 mM phosphate buffer, pH 7.3, 37 °C, removal of AB group, n.h. = no hydrolysis observed through cleavage of AB-mask. The protocol: γ‐(AB,alkyl)‐NTP prodrugs 6 and γ‐alkyl‐NTPs 7 were incubated in aqueous phosphate buffer (PBS, 25 mM, pH 7.3), or were exposed to pig liver esterase (PLE) in phosphate buffer (PBS) and to human CD4^+ T‐lymphocyte cell extracts to study their stability and the product distribution. The hydrolysis mixtures were analyzed by means of analytical rp‐18‐HPLC. The calculated half‐lives of prodrugs 6 (Table 1, t 1/2) reflect the removal of the bioreversible AB group to yield γ‐alkyl‐NTPs 7. Possible hydrolysis pathways and products are summarized in Scheme 4.
As hydrolysis products, a predominant formation of γ‐alkyl‐d4TTPs 7 and a very small amount of d4TDP […] was detected (approximately 3 %). After consumption of the starting material, no further increase of d4TDP concentration was observed. This supports the hypothesis that only the double‐γ‐esterified d4TTP prodrugs 6 were prone to a bond breakage between the γ‐ and β‐phosphate. […] In contrast to previous studies with TriPPPro‐NTPs 5 containing a second cleavable mask (first generation NTP prodrugs),[ ^23 , ^24 , ^25 ] no d4TTP was detected in these studies using 6 or 7. A side reaction occurred during the studies using compounds 7 that led to the formation of thymine by the cleavage of the glycosidic bond as reported before.[ ^19 , ^22 ]
ProLab 300 from Schott Co.. Thermomixer: Eppendorf Thermomixer 5436 and CellMedia Thermoschüttler basic were used. […]
Chemical hydrolysis of prodrugs of γ-(AB,alkyl) d4TTP 6 as well as the γ-alkyl-NTPs 7,15:
Stock solutions (50mM in DMSO-d6) of compounds 6,7 were prepared. After dilution of 11 µL stock solution with 100 µL milliQ water and 189 µL DMSO-d6 to 1.9mM hydrolysis solutions the reaction was started by addition of 300 µL phosphate buffer saline (PBS, 50mM, pH 7.3). The solution was incubated at 37 C in a thermomixer. An initial aliquot (25 µL) was taken directly and analyzed by analytical HPLC at 265-266 nm. Further aliquots were taken for monitoring the kinetic hydrolysis. The exponential decay curves (pseudo-first order) based on absolute integral values were calculated with commercially available software (OriginPro 9.0G) and yielded the half-lives t1/2 of the prodrugs via one determination. […]
The calculation of t1/2 was performed analogously to that for the chemical hydrolysis studies.
Preparation of cell extracts: Human CD4+ T-lymphocyte CEM cells were grown in RPMI-1640-based cell culture medium to a final density of ~3·10^6 cells/ml. Then, cells were centrifuged for 10 min at 1,250 rpm at 4 °C, washed twice with cold PBS, and the pellet was re-suspended at 10^8 cells/ml and sonicated (Hielscher Ultrasound Techn., 100% amplitude, 3·times for 10 sec) to destroy cell integrity. The resulting cell suspension was then centrifuged at 10,000 rpm to remove cell debris, and the supernatant divided in aliquots before being frozen at -80 C and used.
(1 picture or pasted object on this page, not shown here)

Data set [2] is described as follows: Cytotoxicity: inhibition of CD4+ T-cell (CEM) proliferation. It is filed as cell-based. To be noted: human, CEM/0 cells (CD4+ T-cells), 50 % cytostatic concentration, mean±SD, n=2-3.

Some results are limits rather than exact numbers.

Regarding `CCCCCCCCCCCCCCCCCCOP(=O)(OCc1ccc(OC(=O)CCCC)cc1)OP(=O)(O)OP(=O)(O)OCC1C=CC(n2cc(C)c(=O)[nH]c2=O)O1` (stereo not shown) [6 cz, γ‐(AB‐C4,alkyl‐C18)‐d4TTP], the half-life at 0.92 mM in data set [1] was 237 h. Further, the CC50 in data set [2] amounted to 13 ± 1 µM.
As to `CCCCOP(=O)(O)OP(=O)(O)OP(=O)(O)OCC1C=CC(n2cc(C)c(=O)[nH]c2=O)O1` (stereo not shown) [7 w, γ‐C4‐d4TTP], the “PBS pH 7.3 t 1/2” value in data set [1] is “n.h.^[c]”. The same compound showed a CC50 in data set [2] greater than 100 µM.
Consider `CCCCCCCCCCCCCCCCCCOP(=O)(O)OP(=O)(O)OP(=O)(O)OCC1C=CC(n2cc(C)c(=O)[nH]c2=O)O1` (stereo not shown) [7 z, γ‐C18‐d4TTP], for which the “calculated half-life in PBS hydrolysis (decrease by thymine formation, cleavage of the glycosidic bond)” value in data set [1] (PBS pH 7.3) is given as “about 1500 h”. The “PBS pH 7.3 t 1/2” value in data set [1] was “n.h.^[c]”. Also, the half-maximal cytotoxic concentration (CC50) in data set [2] is 86 ± 3 µM.
Regarding `Cc1cn(C2C=CC(COP(=O)(O)OP(=O)(O)OP(=O)(O)O)O2)c(=O)[nH]c1=O` (stereo not shown) [2 t, d4TTP, reference compound], the CC50 in data set [2] was greater than 100 µM.
With `CCCCCCCCCCCCCCCC(=O)Oc1ccc(COP(=O)(OCCCC)OP(=O)(O)OP(=O)(O)OCC2C=CC(n3cc(C)c(=O)[nH]c3=O)O2)cc1` (stereo not shown) [6 ew, γ‐(AB‐C15,alkyl‐C4)‐d4TTP], the half-life at 0.92 mM in data set [1] is 198 h. The half-maximal cytotoxic concentration (CC50) in data set [2] worked out at 21 ± 2 µM.
